From the NIST ThermoML archive (doi:10.1021/je100749m)
Numbers after ± are expanded uncertainties.

Columns and labels:
[1] = Molar enthalpy of transition or fusion; conditions: Crystal; DSC
[2] = Crystal; DTA

SMILES	Molar enthalpy of transition or fusion [1] [kcal/mol]	Normal melting temperature [2] [°C]
O=C(O)CCCC(=O)O [1,5-pentanedioic acid]	5 ± 0.148	95.98 ± 0.53
O=C(O)CCCCC(=O)O [1,6-hexanedioic acid]	8.46 ± 0.237	153.16 ± 0.53
O=C(O)c1ccccc1 [benzoic acid]	4.31 ± 0.131	122.93 ± 0.53
